Results on twelve molecules are retold here after patent US12187723B2 (BRISTOL-MYERS SQUIBB COMPANY, priority 2019, dated 2025).

Structures can show the parent of a compound that is named as a salt.

The target of this assay is T1, human TLR9 (Homo sapiens, UniProt Q9NR96).
T1 construct: host or cells: HEK-Blue cells
T1 sequence (Q9NR96 26-1032): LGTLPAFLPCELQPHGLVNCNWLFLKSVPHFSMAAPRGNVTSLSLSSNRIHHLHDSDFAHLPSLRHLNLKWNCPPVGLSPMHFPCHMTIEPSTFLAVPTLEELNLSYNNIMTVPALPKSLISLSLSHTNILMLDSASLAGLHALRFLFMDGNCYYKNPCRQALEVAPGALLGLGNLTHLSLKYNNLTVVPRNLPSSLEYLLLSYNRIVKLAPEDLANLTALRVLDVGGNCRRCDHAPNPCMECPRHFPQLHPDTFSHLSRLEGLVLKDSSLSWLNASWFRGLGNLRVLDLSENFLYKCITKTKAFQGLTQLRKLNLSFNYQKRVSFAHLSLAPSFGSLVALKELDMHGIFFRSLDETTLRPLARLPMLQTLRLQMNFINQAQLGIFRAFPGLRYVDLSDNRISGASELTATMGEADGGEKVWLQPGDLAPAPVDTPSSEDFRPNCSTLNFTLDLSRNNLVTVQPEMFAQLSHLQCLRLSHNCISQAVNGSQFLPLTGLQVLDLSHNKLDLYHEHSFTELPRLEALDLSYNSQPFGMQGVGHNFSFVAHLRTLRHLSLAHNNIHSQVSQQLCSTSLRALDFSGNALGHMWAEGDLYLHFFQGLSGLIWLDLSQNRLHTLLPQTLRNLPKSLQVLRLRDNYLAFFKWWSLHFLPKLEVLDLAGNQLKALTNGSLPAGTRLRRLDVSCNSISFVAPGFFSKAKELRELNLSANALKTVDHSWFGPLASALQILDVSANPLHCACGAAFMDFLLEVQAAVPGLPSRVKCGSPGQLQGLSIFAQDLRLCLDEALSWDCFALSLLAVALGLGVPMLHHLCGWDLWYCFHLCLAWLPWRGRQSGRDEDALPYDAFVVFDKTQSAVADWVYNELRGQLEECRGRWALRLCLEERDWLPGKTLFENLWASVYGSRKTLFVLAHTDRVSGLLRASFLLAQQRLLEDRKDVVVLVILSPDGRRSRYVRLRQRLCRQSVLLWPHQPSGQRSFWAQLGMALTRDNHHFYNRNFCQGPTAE
Briefly: TLR9 inhibition reporter assay (HEK-Blue SEAP). The format is cell-based. As to conditions: HEK-Blue cells overexpressing human TLR9, ODN2006 5 nM, 22 hour incubation. In short, it runs like this: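 Human TLR7/8/9 HEK-Blue reporter lines; dose range 0.05 nM–50 μM; 30 min RT preincubation; stimulus gardiquimod 7.5 μM / R848 15.9 μM / ODN2006 5 nM respectively; 22 h, 37 °C; SEAP detected colorimetrically.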
Take `Cc1cc2c(cc1-c1cc(C)c3ncnn3c1)[nH]c(=O)n2C1CCCNC1` (stereo not drawn) [1 EC, 6-methyl-5-(8-methyl-[1,2,4]triazolo[1,5-a]pyridin-6-yl)-1-(piperidin-3-yl)-1,3-dihydro-2H-benzo[d]imidazol-2-one]: it took 0.381 µM to reach half-maximal inhibition (IC50).

On to `COc1cc(-c2cc3[nH]c(=O)n(C4CCC(N5CCC(F)(F)C5)CC4)c3cc2C(C)C)cn2ncnc12` (single isomer, unassigned) [Example 295, 1-(4-(3,3-difluoropyrrolidin-1-yl)cyclohexyl)-6-isopropyl-5-(8-methoxy-[1,2,4]triazolo[1,5-a]pyridin-6-yl)-1,3-dihydro-2H-benzo[d]imidazol-2-one], for which half-maximal inhibition (IC50) required 22.2 µM.

Regarding `CCC(C)N1CCC[C@@H](n2c(=O)[nH]c3cc(-c4cc(C)c5ncnn5c4)c(C)cc32)C1` (stereo partly drawn) [Example 28, 1-((3R)-1-(sec-butyl)piperidin-3-yl)-6-methyl-5-(8-methyl-[1,2,4]triazolo[1,5-a]pyridin-6-yl)-1,3-dihydro-2H-benzo[d]imidazol-2-one], 10.8 µM corresponded to half-maximal inhibition (IC50).

Consider `COc1cc(-c2cc3[nH]c(=O)n([C@H]4CC[C@@H](N)CC4)c3cc2C)cn2ncnc12` [1 EG, 1-((1s,4s)-4-aminocyclohexyl)-5-(8-methoxy-[1,2,4]triazolo[1,5-a]pyridin-6-yl)-6-methyl-1,3-dihydro-2H-benzo[d]imidazol-2-one], for which the IC50 is 3.65 µM.

The molecule `COC1CN(C2CCC(n3c(=O)[nH]c4cc(-c5cn6ncnc6c(C)c5C)c(C(C)C)cc43)CC2)C1` (single isomer, unassigned) [Example 277, 5-(7,8-dimethyl-[1,2,4]triazolo[1,5-a]pyridin-6-yl)-6-isopropyl-1-(4-(3-methoxyazetidin-1-yl)cyclohexyl)-1,3-dihydro-2H-benzo[d]imidazol-2-one] showed an IC50 of 7.38 µM.

Molecule `COc1cc(-c2cc3[nH]c(=O)n(C4CCNCC4)c3cc2C)cn2ncnc12` [1 E, 5-(8-methoxy-[1,2,4]triazolo[1,5-a]pyridin-6-yl)-6-methyl-1-(piperidin-4-yl)-1H-benzo[d]imidazol-2(3H)-one, TFA] yielded an IC50 of 2.64 µM.

Molecule `COc1cc(-c2cc3[nH]c(=O)n([C@@H]4CCCNC4)c3cc2C)cn2ncnc12` [1 EH, (R)-5-(8-methoxy-[1,2,4]triazolo[1,5-a]pyridin-6-yl)-6-methyl-1-(piperidin-3-yl)-1,3-dihydro-2H-benzo[d]imidazol-2-one] returned an IC50 of 0.809 µM.

`Cc1c(-c2cc3[nH]c(=O)n(C4CCC(N5CCCC(F)C5)CC4)c3cc2C(C)C)cn2ncnc2c1C` (stereo not drawn) [Example 273, 5-(7,8-dimethyl-[1,2,4]triazolo[1,5-a]pyridin-6-yl)-1-(4-(3-fluoropiperidin-1-yl)cyclohexyl)-6-isopropyl-1,3-dihydro-2H-benzo[d]imidazol-2-one]: the midpoint of inhibition, the IC50, lay at 13.5 µM. Compared with the last molecule, the IC50 is about 17-fold higher.

Turning to `Cc1cc2c(cc1-c1cc(C)c3ncnn3c1)[nH]c(=O)n2[C@@H]1CCCNC1` [1 ED, (R)-6-methyl-5-(8-methyl-[1,2,4]triazolo[1,5-a]pyridin-6-yl)-1-(piperidin-3-yl)-1,3-dihydro-2H-benzo[d]imidazol-2-one], the midpoint of inhibition, the IC50, lay at 0.524 µM.

`COc1cc(-c2cc3[nH]c(=O)n(C4CCC(N5CC(F)(F)C5)CC4)c3cc2C(C)C)cn2ncnc12` (single isomer, unassigned) [Example 297] yielded an IC50 of 16.2 µM.

For `Cc1c(-c2cc3[nH]c(=O)n(C4CCC(N5CCCC(F)C5)CC4)c3cc2C(C)C)cn2ncnc2c1C` (stereo not drawn) [Example 274, 5-(7,8-dimethyl-[1,2,4]triazolo[1,5-a]pyridin-6-yl)-1-(4-(3-fluoropiperidin-1-yl)cyclohexyl)-6-isopropyl-1,3-dihydro-2H-benzo[d]imidazol-2-one], the IC50 worked out at 16.8 µM. This IC50 and that of the molecule before are within 1.5-fold of each other.

`COc1cc(-c2cc3[nH]c(=O)n(C4CCC(N5CC[C@H](F)C5)CC4)c3cc2C(C)C)cn2ncnc12` (stereo partly drawn) [Example 286, (S)-1-(4-(3-fluoropyrrolidin-1-yl)cyclohexyl)-6-isopropyl-5-(8-methoxy-[1,2,4]triazolo[1,5-a]pyridin-6-yl)-1,3-dihydro-2H-benzo[d]imidazol-2-one] yielded an IC50 of 4.28 µM.
